Measured values published in US12077501B2, “Compounds and compositions for intracellular delivery of agents” (ModernaTX, Inc., priority 2017, dated 2024).

Legend:
[1] = Particle size and polydispersity index of nanoparticle compositions (Zetasizer Nano ZS); assay type: physicochemical; settings: Formulated with lipid:Chol:DOPE:PEG 1 40:38.5:20:1.5
Description: A Zetasizer Nano ZS (Malvem Instruments Ltd, Malvem, Worcestershire, UK) can be used to determine the particle size, the polydispersity index (PDI) and the zeta potential of the nanoparticle compositions in 1×PBS in determining particle size and 15 mM PBS in determining zeta potential.

[2] = test system: hEPO expression; experiment: hEPO (miR126 + miR142) mRNA expression, Tables 8b-8e; assay type: in vivo
[3] = Lipid clearance: % dose remaining, Tables 7c and 8b-8e (species not given); assay type: in vivo
Excerpt: In contrast, hEPO expression in rats induced by administration of a nanoparticle composition including a compound according to one of formulae (I), (Ia1)-(Ia6), (Ib), (II), (IIa), (III), and (IIIa) was substantially […] than that measured for MC3. […] Tables 7c and 7d show additional protein expressions and clearance data from compositions with various compounds disclosed herein as compared to with MC3. Tables 7e, 7f and 7g show hEPO expression data in CD-1 mice at a dose of 0.5 mpk.

[4] = Encapsulation efficiency of RNA (QUANT-IT RIBOGREEN RNA assay); assay type: physicochemical; settings: Formulated with lipid:Chol:DOPE:PEG 1 40:38.5:20:1.5
Procedure, shortened: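 Samples diluted to about 5 μg/mL RNA in TE buffer pH 7.5, treated with buffer or 2% Triton X-100 for 15 min at 37° C, then stained with RiboGreen (1:100). Fluorescence at about 480/520 nm, blank-subtracted; free RNA fraction is intact over Triton-disrupted signal.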

CCCCCCCCCN(CCCCCCCCC)CCCOCCCN(CCCCCCCCC)CCN(CCCCCCCCC)CCCCCCCCC [Compound 161, N^1-(3-(3-(dinonylamino)propoxy)propyl)-N^1,N^2,N^2-trinonylethane-1,2-diamine]
PDI ([1]; Table 1e): 0.17
Size (nm) ([1]; Table 1e): 61.8 nm
AUC ([2]; Table 8c): 128000 pg·h/mL
% Dose Remaining (liver, 24 h) ([3]; Table 8c): 113.64%
EE (%) ([4]; Table 1e): 97.8%

CCCCCCCCCCNC(=O)CN(CCCCCCCCC)CCN(CCCCCCCCC)CCCCCCCCC [Compound 162, N-decyl-2-((2-(dinonylamino)ethyl)(nonyl)amino)acetamide]
PDI ([1]; Table 1e): 0.23
Size (nm) ([1]; Table 1e): 73.1 nm
AUC ([2]; Table 8c): 2.3e+07 pg·h/mL
% Dose Remaining (liver, 24 h) ([3]; Table 8c): 63.12%
EE (%) ([4]; Table 1e): 98.4%

CCCCCCCCCCCCCCNC(=O)CN(CCCCCCCCC)CCN(CCCCCCCCC)CCCCCCCCC [Compound 163, 2-((2-(dinonylamino)ethyl)(nonyl)amino)-N-tetradecylacetamide]
PDI ([1]; Table 1e): 0.23
Size (nm) ([1]; Table 1e): 88.6 nm
AUC ([2]; Table 8c): 1.01e+07 pg·h/mL
% Dose Remaining (liver, 24 h) ([3]; Table 8c): 65.12%
EE (%) ([4]; Table 1e): 98.1%

CCCCCCCCCCN(CCCCCCCCCC)CCCCC(=O)N1CCN(C(=O)CCCCN(CCCCCCCCCC)CCCCCCCCCC)CC1 [Compound 164, 1,1′-(Piperazine-1,4-diyl)bis(5-(didecylamino)pentan-1-one)]
PDI ([1]; Table 1e): 0.15
Size (nm) ([1]; Table 1e): 74.4 nm
AUC ([2]; Table 8c): 4.09e+06 pg·h/mL
% Dose Remaining (liver, 24 h) ([3]; Table 8c): 40.18%
EE (%) ([4]; Table 1e): 97.7%

CCCCCCCCCN(CCCCCCCCC)CCN(CCCCCCCCC)CC(=O)NCCCCOC(=O)CCCC [Compound 165, 4-(2-((2-(dinonylamino)ethyl)(nonyl)amino)acetamido)butyl pentanoate]
PDI ([1]; Table 1e): 0.22
Size (nm) ([1]; Table 1e): 107.8 nm
AUC ([2]; Table 8c): 9.38e+07 pg·h/mL
% Dose Remaining (liver, 24 h) ([3]; Table 8c): 0.13%
EE (%) ([4]; Table 1e): 97.0%

CCCCCCCCCOC(=O)CN(CCCCCCCCC)CCN(CCCCCCCCC)CCCCCCCCC [Compound 166, Nonyl N-(2-(dinonylamino)ethyl)-N-nonylglycinate]
PDI ([1]; Table 1e): 0.24
Size (nm) ([1]; Table 1e): 59.4 nm
AUC ([2]; Table 8c): 0 pg·h/mL
% Dose Remaining (liver, 24 h) ([3]; Table 8c): 75.26%
EE (%) ([4]; Table 1e): 97.1%

CCCCCCCCCCCCCCOC(=O)CN(CCCCCCCCC)CCN(CCCCCCCCC)CCCCCCCCC [Compound 167, Tetradecyl N-(2-(dinonylamino)ethyl)-N-nonylglycinate]
PDI ([1]; Table 1e): 0.22
Size (nm) ([1]; Table 1e): 64.5 nm
AUC ([2]; Table 8c): 0 pg·h/mL
% Dose Remaining (liver, 24 h) ([3]; Table 8c): 89.60%
EE (%) ([4]; Table 1e): 97.6%

CCCCCCCCCN(CCCCCCCCC)CCN(CCCCCCCCC)CCOC(=O)CCCCCCCC [Compound 168, 2-((2-(Dinonylamino)ethyl)(nonyl)amino)ethyl Nonanoate]
PDI ([1]; Table 1e): 0.17
Size (nm) ([1]; Table 1e): 60.0 nm
AUC ([2]; Table 8c): 0 pg·h/mL
% Dose Remaining (liver, 24 h) ([3]; Table 8c): 2.74%
EE (%) ([4]; Table 1e): 97.3%

CCCCCCCCCCCCCC(=O)OCCN(CCCCCCCCC)CCN(CCCCCCCCC)CCCCCCCCC [Compound 169, 2-((2-(Dinonylamino)ethyl)(nonyl)amino)ethyl Tetradecanoate]
PDI ([1]; Table 1e): 0.24
Size (nm) ([1]; Table 1e): 72.5 nm
AUC ([2]; Table 8c): 0 pg·h/mL
% Dose Remaining (liver, 24 h) ([3]; Table 8c): 0.30%
EE (%) ([4]; Table 1e): 97.6%

CCCCCCCCCOC(=O)CCCCCCCN(CCCCCCCC(=O)OC(CCCCCCCC)CCCCCCCC)CCCCC(=O)N(CC)CCN(CC)C(=O)CCCCN(CCCCCCCC(=O)OCCCCCCCCC)CCCCCCCC(=O)OC(CCCCCCCC)CCCCCCCC [Compound 181, Di(heptadecan-9-yl) 15,18-diethyl-9,24-bis(8-(nonyloxy)-8-oxooctyl)-14,19-dioxo-9,15,18,24-tetraazadotriacontanedioate]
PDI ([1]; Table 1f): 0.25
Size (nm) ([1]; Table 1f): 129.9 nm
AUC ([2]; Table 8d): 1.69e+08 pg·h/mL
% Dose Remaining (liver, 24 h) ([3]; Table 8d): 2.51%
EE (%) ([4]; Table 1f): 97.7%

CCCCCCCCCOC(=O)CCCCCCCN(CCCCCCCC(=O)OC(CCCCCCCC)CCCCCCCC)CCCCC(=O)N(C)CCCN(C)C(=O)CCCCN(CCCCCCCC(=O)OCCCCCCCCC)CCCCCCCC(=O)OC(CCCCCCCC)CCCCCCCC [Compound 182, Di(heptadecan-9-yl) 15,19-dimethyl-9,25-bis(8-(nonyloxy)-8-oxooctyl)-14,20-dioxo-9,15,19,25-tetraazatritriacontanedioate]
PDI ([1]; Table 1f): 0.28
Size (nm) ([1]; Table 1f): 97.7 nm
AUC ([2]; Table 8d): 6.06e+07 pg·h/mL
% Dose Remaining (liver, 24 h) ([3]; Table 8d): 1.64%
EE (%) ([4]; Table 1f): 98.8%

CCCCCCCCCOC(=O)CCCCCCCN(CCCCCCCC(=O)OC(CCCCCCCC)CCCCCCCC)CCCCC(=O)N(C)CCN(C)C(=O)CCCCN(CCCCCCCC(=O)OCCCCCCCCC)CCCCCCCC(=O)OC(CCCCCCCC)CCCCCCCC [Compound 183, Di(heptadecan-9-yl) 15,18-dimethyl-9,24-bis(8-(nonyloxy)-8-oxooctyl)-14,19-dioxo-9,15,18,24-tetraazadotriacontanedioate]
PDI ([1]; Table 1f): Multimodal
Size (nm) ([1]; Table 1f): 128.9 nm
AUC ([2]; Table 8d): 6.53e+07 pg·h/mL
% Dose Remaining (liver, 24 h) ([3]; Table 8d): 1.87%
EE (%) ([4]; Table 1f): 99.1%

CCCCCCCCCOC(=O)CCCCCCCN(CCCCCCCC(=O)OC(CCCCCCCC)CCCCCCCC)CCCCC(=O)N1CCN(C(=O)CCCCN(CCCCCCCC(=O)OCCCCCCCCC)CCCCCCCC(=O)OC(CCCCCCCC)CCCCCCCC)CC1 [Compound 184, Di(heptadecan-9-yl) 8,8′-((piperazine-1,4-diylbis(5-oxopentane-5,1-diyl))bis((8-(nonyloxy)-8-oxooctyl)azanediyl))dioctanoate]
PDI ([1]; Table 1f): Multimodal
Size (nm) ([1]; Table 1f): 107.6 nm
AUC ([2]; Table 8d): 4.21e+08 pg·h/mL
% Dose Remaining (liver, 24 h) ([3]; Table 8d): 2.23%
EE (%) ([4]; Table 1f): 99.1%

CCCCCCCCCOC(=O)CCCCCCCN(CCCCCCCC(=O)OC(CCCCCCCC)CCCCCCCC)CCCCC(=O)OCCOC(=O)CCCCN(CCCCCCCC(=O)OCCCCCCCCC)CCCCCCCC(=O)OC(CCCCCCCC)CCCCCCCC [Compound 185, Di(heptadecan-9-yl) 8,8′-(11,24,29,42-tetraoxo-10,25,28,43-tetraoxa-19,34-diazadopentacontane-19,34-diyl)dioctanoate]
PDI ([1]; Table 1f): 0.27
Size (nm) ([1]; Table 1f): 98.4 nm
AUC ([2]; Table 8d): 2.23e+07 pg·h/mL
% Dose Remaining (liver, 24 h) ([3]; Table 8d): 18.21%
EE (%) ([4]; Table 1f): 98.6%

CCCCCCCCCOC(=O)CCCCCCCN(CCCCCCCC(=O)OC(CCCCCCCC)CCCCCCCC)CCCCC(=O)OC(C)C(C)OC(=O)CCCCN(CCCCCCCC(=O)OCCCCCCCCC)CCCCCCCC(=O)OC(CCCCCCCC)CCCCCCCC (stereo not shown) [Compound 186, Di(heptadecan-9-yl) 8,8′-(26,27-dimethyl-11,24,29,42-tetraoxo-10,25,28,43-tetraoxa-19,34-diazadopentacontane-19,34-diyl)dioctanoate]
PDI ([1]; Table 1f): 0.21
Size (nm) ([1]; Table 1f): 111.5 nm
AUC ([2]; Table 8d): 2.19e+07 pg·h/mL
% Dose Remaining (liver, 24 h) ([3]; Table 8d): 49.08%
EE (%) ([4]; Table 1f): 98.2%

CCCCCCCCCOC(=O)CCCCCCCN(CCCCCCCC(=O)OC(CCCCCCCC)CCCCCCCC)CCCCC(=O)OC(C)CC(C)OC(=O)CCCCN(CCCCCCCC(=O)OCCCCCCCCC)CCCCCCCC(=O)OC(CCCCCCCC)CCCCCCCC (stereo not shown) [Compound 187, Di(heptadecan-9-yl) 8,8′-(26,28-dimethyl-11,24,30,43-tetraoxo-10,25,29,44-tetraoxa-19,35-diazatripentacontane-19,35-diyl)dioctanoate]
PDI ([1]; Table 1f): 0.20
Size (nm) ([1]; Table 1f): 126.0 nm
AUC ([2]; Table 8d): 5.22e+07 pg·h/mL
% Dose Remaining (liver, 24 h) ([3]; Table 8d): 42.86%
EE (%) ([4]; Table 1f): 98.5%

CCCCCCCCCN(CCCCCCCCC)CCN(CCCCCCCCC)CC(=O)OC(C)C(C)OC(=O)CN(CCCCCCCCC)CCCCCCCCC (stereo not shown) [Compound 188, 3-((N-(2-(dinonylamino)ethyl)-N-nonylglycyl)oxy)butan-2-yl dinonylglycinate]
PDI ([1]; Table 1f): 0.12
Size (nm) ([1]; Table 1f): 78.0 nm
AUC ([2]; Table 8d): 8.76e+06 pg·h/mL
% Dose Remaining (liver, 24 h) ([3]; Table 8d): 117.31%
EE (%) ([4]; Table 1f): 97.5%
